Reference: PubChem BioAssay AID1259334 (Broad Institute, 2017)
Activity calls are given as the source filed them. Cut-off read from the data, not from the text of the source: active = AC50 below about 11 µM.

Experiment: TNFa signaling inhibitors in B cell line, dose response, counter-screen (AID 1259334);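 note: cells stimulated with TNFa after compound preincubation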
Details: B cell line, TNFa signaling counterscreen reporter, active compounds read low

## CCc1cc2c(COC(=O)c3cc(S(=O)(=O)N4CCOCC4)ccc3F)cc(=O)oc2cc1O
At 0.0135 µM
  max activity: 15.8% (inactive)

## C[C@H]1CN([C@@H](C)CO)C(=O)c2c(c3ccccc3n2C)-c2ccccc2CO[C@@H]1CN(C)S(=O)(=O)c1ccc([N+](=O)[O-])cc1
At 3 µM
  max activity: -14.8% (inactive)

## CC1=NNC(=O)C1Br (stereo unspecified)
At 0.042 µM
  max activity: 52.7% (inactive)

## C[C@H]1CN([C@@H](C)CO)C(=O)c2ccccc2-c2ccccc2CO[C@H]1CN(C)C(=O)[C@@H](Cc1ccccc1)N(C)C
At 0.38 µM
  max activity: -6.07% (inactive)

## CC1=CC(=O)c2ccccc2C1=O
At 1.1 µM
  max activity: 21.6% (inactive)

## Cc1ccc(-c2nn3c(C)nnc3c3ccccc23)cc1S(=O)(=O)NCc1ccccc1
At 0.0015 µM
  max activity: 9.48% (inactive)

## N#C[C@@H]1[C@@H](c2ccc(C#CC3CCCCC3)cc2)[C@H](CO)N1C(=O)Nc1ccc(F)cc1
At 0.042 µM
  max activity: 13.4% (inactive)

## COc1ccc(S(=O)(=O)N(C)C[C@@H]2Oc3ccc(NC(=O)Nc4ccc(C(F)(F)F)cc4)cc3C(=O)N([C@@H](C)CO)C[C@@H]2C)cc1
At 0.0135 µM
  max activity: 7.2% (inactive)

## Oc1ccc(Cc2ccccc2)c2cccnc12
At 0.38 µM
  max activity: -12% (inactive)

## C[C@@H]1CN([C@H](C)CO)C(=O)c2c(c3ccccc3n2C)-c2ccccc2CO[C@H]1CN(C)C(=O)Nc1ccccc1C(F)(F)F
At 10 µM
  max activity: -6.36% (inactive)

## C[C@@H]1CN([C@H](C)CO)C(=O)c2cc(NC(=O)Nc3cccc4ccccc34)ccc2O[C@@H](C)CCCCO[C@H]1CN(C)Cc1ccc(C(F)(F)F)cc1
At 3.5 µM
  max activity: -8.53% (inactive)

## Cc1ccc(S(=O)(=O)N2CCCC2CNC(=O)c2ccc3c(c2)OCO3)cc1 (stereo unspecified)
At 3.5 µM
  max activity: -23.3% (inactive)

## CC(=O)c1cc(-c2ccccc2)n(CC(=O)NCc2cccs2)c1C
At 0.38 µM
  max activity: 12.3% (inactive)

## C[C@@H]1CN([C@@H](C)CO)C(=O)Cc2cc(NC(=O)Cc3cn(C)c4ccccc34)ccc2O[C@H]1CN(C)Cc1ccc(C(F)(F)F)cc1
At 0.0046 µM
  max activity: 14% (inactive)

## CCc1cnc(N2[C@H](C#N)[C@H](c3ccc(C#CCC4CCCC4)cc3)[C@@H]2CO)s1
At 10 µM
  max activity: 32.9% (inactive)

## CCc1cc2c(=O)c(-c3ccc4c(c3)OCCO4)coc2c(CN2CCCCC2C)c1O (stereo unspecified)
At 10 µM
  max activity: 26.6% (inactive)

## N#C[C@H]1[C@H](c2ccc(C#CC3CCCCC3)cc2)[C@@H](CO)N1C(=O)Nc1ccc(F)cc1
At 0.135 µM
  max activity: 9.41% (inactive)

## Cc1ccc(OCCn2cnc3c(N)ncnc32)cc1
At 3.5 µM
  max activity: -11.4% (inactive)

## N#Cc1ccc(-c2ccc3c(c2)[C@H]2[C@H](CCN2C(=O)C2CC2)[C@@H](CO)N3)cc1
At 3.5 µM
  max activity: -16.6% (inactive)

## C[C@@H]1CN([C@H](C)CO)C(=O)c2c(c3ccccc3n2C)-c2ccccc2CO[C@@H]1CN(C)S(=O)(=O)c1ccccc1C#N
At 0.11 µM
  max activity: 17.1% (inactive)

## NS(=O)(=O)c1nn2cc(-c3ccccc3)nc2s1
At 1.1 µM
  max activity: 17.7% (inactive)

## CC(C)(C)c1cc(/C=C(\C#N)C(N)=S)cc(C(C)(C)C)c1O
At 0.38 µM
  max activity: -4.66% (inactive)

## CCN1C(=O)C(CC(=O)Nc2ccc(OC)cc2)N(CCc2ccc(F)cc2)C1=S (stereo unspecified)
At 0.0046 µM
  max activity: 4.9% (inactive)

## N#C[C@H]1[C@H](c2ccc(C#CC3CCCCC3)cc2)[C@H](CO)N1C(=O)Nc1ccc(F)cc1
At 0.0135 µM
  max activity: 9.39% (inactive)

## N#C[C@@H]1[C@@H](c2ccccc2)[C@H](CO)N1C(=O)CN1CCOCC1
At 10 µM
  max activity: 46.9% (inactive)

## O=c1cc(-c2ccccc2)oc2cc(O)cc(O)c12
At 0.12 µM
  max activity: 45.8% (inactive)

## CCN(CC(=O)Nc1ccc(NC(C)=O)cc1)C(=O)C1CCCN(C(=O)c2ccc(Cl)cc2)C1 (stereo unspecified)
At 0.0005 µM
  max activity: -4.62% (inactive)

## COc1ccc(NC(=O)O/N=C/c2c(C)nn(C(C)(C)C)c2C)cc1
At 1.1 µM
  max activity: 39.8% (inactive)

## CCCCc1nc2ccccc2[nH]1
At 10 µM
  max activity: 6.54% (inactive)

## Cc1ccc(-c2ccccc2[C@H]2[C@@H](C#N)N(c3ncc(-c4ccccc4)s3)[C@@H]2CO)cc1
At 3.5 µM
  max activity: 7.84% (inactive)

## COC(=O)c1ccc2c(=O)[nH]c(COC(=O)c3c(-c4ccccc4)noc3C)nc2c1
At 3.5 µM
  max activity: 8.26% (inactive)

## N#C[C@H]1[C@H](c2ccc(C#Cc3ccccc3F)cc2)[C@@H](CO)N1C(=O)C1CC1
At 3.5 µM
  max activity: -17.4% (inactive)

## C[C@@H]1CN([C@@H](C)CO)C(=O)c2c(c3ccccc3n2C)-c2ccccc2CO[C@@H]1CN(C)Cc1cccc(C(F)(F)F)c1
At 0.38 µM
  max activity: -7.66% (inactive)

## O=C(C1CCC1)N1CCc2cc(S(=O)(=O)N3CCCCC3)ccc21
At 3.5 µM
  max activity: -31.7% (inactive)

## COc1ccc2c(c1)c1ncn(Cc3ccccn3)c(=O)c1n2C
At 1.1 µM
  max activity: -8.21% (inactive)

## CC12CN3CC(C)(CN(C1)C3c1ccc3c(c1)OCO3)C2=O (stereo unspecified)
At 0.12 µM
  max activity: -17.3% (inactive)
